pIC50: −log10 of the molar value. A value given as a limit tells only on which side of the number the result lay.

For this assay, the target named is PI3Kβ (Homo sapiens (Human), UniProt P42338). Put plainly: PI3K isoform TR-FRET enzymatic assay (PI3Kβ). The assay is classed as biochemical. Conditions: 2× Km ATP, 30 minutes at 25° C. Here is the method:
The compounds of formula (I) were characterized for their enzymatic activity against the PI3K isoforms. The activities were measured using a time-resolved fluorescence resonance energy transfer (TR-FRET) assay. TR-FRET monitored the formation of 3,4,5-inositol triphosphate molecule that competed with fluorescently labeled PIP3 for binding to the GRP-1 pleckstrin homology domain protein.
Class I PI3K isoforms were expressed and purified as heterodimeric recombinant proteins. All assay reagents and buffers for the TR-FRET assay were purchased from Millipore. […] The compounds were added to the assay solution and incubated for 30 minutes at 25° C. The reactions were terminated with a final concentration of 10 mM EDTA, 10 nM labeled-PIP3, and 35 nM Europium labeled GRP-1 detector protein before reading TR-FRET on an Envision plate reader (Ex: 340 nm; Em: 615/665 nm; 100 μs delay and 500 μs read window).
The results were normalized based on positive (1 μM wortmanin) and negative (DMSO) controls, and the IC50 values for PI3K α, β, δ, and γ were calculated from the fit of the dose-response curves to a four-parameter equation.
For orientation: TR-FRET usually uses a lanthanide donor and a delayed reading to cut background.

Sequence of PI3Kβ (P42338 whole entry, the tested form may be a part, canonical isoform): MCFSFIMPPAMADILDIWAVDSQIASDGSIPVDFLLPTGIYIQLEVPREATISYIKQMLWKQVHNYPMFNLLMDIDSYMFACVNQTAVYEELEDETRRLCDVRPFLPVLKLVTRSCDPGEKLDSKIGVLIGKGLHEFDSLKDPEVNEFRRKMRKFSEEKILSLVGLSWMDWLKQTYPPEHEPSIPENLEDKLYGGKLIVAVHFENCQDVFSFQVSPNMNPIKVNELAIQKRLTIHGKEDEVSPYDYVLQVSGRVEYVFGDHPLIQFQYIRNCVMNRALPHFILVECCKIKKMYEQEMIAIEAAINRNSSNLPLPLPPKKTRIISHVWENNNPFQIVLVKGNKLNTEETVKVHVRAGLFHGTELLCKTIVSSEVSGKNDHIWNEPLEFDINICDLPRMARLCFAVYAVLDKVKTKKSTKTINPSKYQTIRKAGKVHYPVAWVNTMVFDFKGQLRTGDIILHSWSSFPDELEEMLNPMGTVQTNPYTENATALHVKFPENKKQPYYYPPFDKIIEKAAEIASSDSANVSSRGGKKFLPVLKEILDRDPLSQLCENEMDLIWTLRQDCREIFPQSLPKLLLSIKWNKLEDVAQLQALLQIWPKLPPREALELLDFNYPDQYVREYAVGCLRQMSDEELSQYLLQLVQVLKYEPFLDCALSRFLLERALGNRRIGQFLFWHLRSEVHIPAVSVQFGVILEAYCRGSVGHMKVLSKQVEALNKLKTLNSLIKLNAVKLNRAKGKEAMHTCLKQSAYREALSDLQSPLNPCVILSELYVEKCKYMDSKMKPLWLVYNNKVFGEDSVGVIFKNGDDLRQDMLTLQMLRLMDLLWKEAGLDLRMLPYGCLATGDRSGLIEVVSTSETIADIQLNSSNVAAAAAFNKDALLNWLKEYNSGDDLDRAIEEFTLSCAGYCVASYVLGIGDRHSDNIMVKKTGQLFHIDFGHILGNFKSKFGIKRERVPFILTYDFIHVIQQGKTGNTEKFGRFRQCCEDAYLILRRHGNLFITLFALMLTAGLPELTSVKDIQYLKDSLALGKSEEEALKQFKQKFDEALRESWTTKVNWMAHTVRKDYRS
Sequence of PI3Kβ (P27986 whole entry partner, the tested form may be a part, canonical isoform): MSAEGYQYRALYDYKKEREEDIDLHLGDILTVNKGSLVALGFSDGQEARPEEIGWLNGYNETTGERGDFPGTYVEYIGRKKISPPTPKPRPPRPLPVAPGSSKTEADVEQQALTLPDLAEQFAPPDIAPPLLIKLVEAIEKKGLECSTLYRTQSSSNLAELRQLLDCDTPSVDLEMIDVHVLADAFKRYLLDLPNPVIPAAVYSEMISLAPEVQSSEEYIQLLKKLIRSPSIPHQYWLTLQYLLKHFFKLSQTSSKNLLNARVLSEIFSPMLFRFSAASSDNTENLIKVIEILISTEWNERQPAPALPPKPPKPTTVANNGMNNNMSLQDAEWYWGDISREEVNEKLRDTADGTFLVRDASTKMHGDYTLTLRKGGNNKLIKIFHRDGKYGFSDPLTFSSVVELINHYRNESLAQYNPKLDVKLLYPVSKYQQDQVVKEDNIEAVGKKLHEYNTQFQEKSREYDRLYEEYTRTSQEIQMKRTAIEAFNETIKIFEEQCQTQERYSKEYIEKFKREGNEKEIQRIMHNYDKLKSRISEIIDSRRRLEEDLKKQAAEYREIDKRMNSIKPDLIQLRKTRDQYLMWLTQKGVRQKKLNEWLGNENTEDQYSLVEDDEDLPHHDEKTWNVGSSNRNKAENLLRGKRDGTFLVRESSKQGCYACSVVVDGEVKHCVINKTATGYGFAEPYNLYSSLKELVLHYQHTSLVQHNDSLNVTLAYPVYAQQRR

The term pIC50 denotes −log10 of the IC50, conventionally taken in molar units. A lower pIC50 goes with a large IC50. In turn, `CCCc1nc2c(-c3nnc(C)[nH]3)cc(N3CCOCC3)cc2n1-c1ccnc2c(Cl)ccc(F)c12` [Example 11, 4-(1-(8-chloro-5-fluoroquinolin-4-yl)-4-(5-methyl-4H-1,2,4-triazol-3-yl)-2-propyl-1H-benzo[d]imidazol-6-yl)morpholine] gave a negative-log IC50 (pIC50) of 7.38.

In turn, `Cc1cnc2c(C#N)cccc2c1-n1c(C)nc2c(-c3nnc[nH]3)cc(N3CCOCC3)cc21` (atropisomer, axis not shown) [Compound 374, 3-methyl-4-(2-methyl-6-morpholino-4-(4H-1,2,4-triazol-3-yl)-1H-benzo[d]imidazol-1-yl)quinoline-8-carbonitrile] gave a pIC50 of 7.66.

`CCc1nc2c(-c3cnc[nH]3)cc(N3CCOCC3)cc2n1-c1ccnc2c(F)ccc(F)c12` [Example 337, 4-[3-(5,8-difluoroquinolin-4-yl)-2-ethyl-7-(1H-imidazol-5-yl)benzimidazol-5-yl]morpholine] showed a negative logarithm of the IC50 (pIC50) of 7.70.

For `CCCc1nc2c(-c3nnc[nH]3)cc(N3CCOCC3)cc2n1-c1ccnc2ccccc12` [Example 41, 4-(2-propyl-1-(quinolin-4-yl)-4-(4H-1,2,4-triazol-3-yl)-1H-benzo[d]imidazol-6-yl)morpholine], the pIC50 is 7.68.

In turn, `Cc1nc2c(-c3nnc[nH]3)cc(N3CCOCC3)cc2n1-c1ccnc2cccc(Cl)c12` [Example 84, 4-[3-(5-chloroquinolin-4-yl)-2-methyl-7-(4H-1,2,4-triazol-3-yl)benzimidazol-5-yl]morpholine] had a pIC50 of 7.77.

The molecule `Fc1ccc(F)c2c(-n3cnc4c(-c5cnc(C(F)(F)F)[nH]5)cc(N5CCOCC5)cc43)ccnc12` [Example 390, 4-(1-(5,8-difluoroquinolin-4-yl)-4-(2-(trifluoromethyl)-1H-imidazol-5-yl)-1H-benzo[d]imidazol-6-yl)morpholine] gave a pIC50 of 6.08.

Molecule `Cc1cc(-n2c(C)nc3c(-c4nnc[nH]4)cc(N4CCOCC4)cc32)c2cccc(C(F)(F)F)c2n1` [Example 60, 4-[2-methyl-3-[2-methyl-8-(trifluoromethyl)quinolin-4-yl]-7-(4H-1,2,4-triazol-3-yl)benzimidazol-5-yl]morpholine] gave a pIC50 of 7.52.

Turning to `Cc1nc2c(-c3ccc(C#N)s3)cc(N3CCOCC3)cc2n1-c1ccnc2c(Cl)cccc12` [Example 273, 5-[1-(8-chloroquinolin-4-yl)-2-methyl-6-morpholin-4-ylbenzimidazol-4-yl]thiophene-2-carbonitrile], the negative logarithm of the IC50 (pIC50) was 5.59.

For `Cc1nc2c(-c3ncco3)cc(N3CCOCC3)cc2n1-c1ccnc2c(F)cccc12` [Example 200, 4-(1-(8-fluoroquinolin-4-yl)-2-methyl-4-(oxazol-2-yl)-1H-benzo[d]imidazol-6-yl)morpholine], the pIC50 was 8.05.

As for `CCc1nc2c(-c3cnc(C)[nH]3)cc(N3CCOCC3)cc2n1-c1ccnc2c(F)ccc(F)c12` [Example 206, 4-[3-(5,8-difluoroquinolin-4-yl)-2-ethyl-7-(2-methyl-1H-imidazol-5-yl)benzimidazol-5-yl]morpholine], the negative logarithm of the IC50 (pIC50) was 7.40.

`Fc1ccc(Cl)c2nccc(-n3c(C4CC4)nc4c(-c5ncco5)cc(N5CCOCC5)cc43)c12` [Example 242, 4-[3-(8-chloro-5-fluoroquinolin-4-yl)-2-cyclopropyl-7-(1,3-oxazol-2-yl)benzimidazol-5-yl]morpholine] gave a negative-log IC50 (pIC50) of 8.22.

As for `CCCc1nc2c(-c3nnc(C)[nH]3)cc(N3CCOCC3)cc2n1-c1ccnc2c(F)ccc(F)c12` [Example 3, 4-(1-(5,8-difluoroquinolin-4-yl)-4-(5-methyl-4H-1,2,4-triazol-3-yl)-2-propyl-1H-benzo[d]imidazol-6-yl)morpholine], the negative logarithm of the IC50 (pIC50) was 7.62.

As to `Cc1nc2c(-c3cn(C)cn3)cc(N3CCOCC3)cc2n1-c1ccnc2c(Cl)cccc12` [Example 203, 4-[3-(8-chloroquinolin-4-yl)-2-methyl-7-(1-methylimidazol-4-yl)benzimidazol-5-yl]morpholine], the negative logarithm of the IC50 (pIC50) was 6.92.

Take `CCCc1nc2c(-c3ccn[nH]3)cc(N3CCOCC3)cc2n1-c1ccnc2c(F)ccc(F)c12` (atropisomer, axis not shown) [Compound 369, 4-(1-(5,8-difluoroquinolin-4-yl)-2-propyl-4-(1H-pyrazol-5-yl)-1H-benzo[d]imidazol-6-yl)morpholine]: the negative-log IC50 (pIC50) was less than 5.00.

For `Clc1ncc(-c2cc(N3CCOCC3)cc3c2nc(CC2CC2)n3-c2ccnc3c(Cl)cccc23)[nH]1` [Example 301, 4-[7-(2-chloro-1H-imidazol-5-yl)-3-(8-chloroquinolin-4-yl)-2-(cyclopropylmethyl)benzimidazol-5-yl]morpholine], the negative logarithm of the IC50 (pIC50) is 7.70.

In the case of `Fc1ccc(F)c2c(-n3cnc4c(-c5cnc[nH]5)cc(N5CCOCC5)cc43)ccnc12` [Example 336, 4-[3-(5,8-difluoroquinolin-4-yl)-7-(1H-imidazol-5-yl)benzimidazol-5-yl]morpholine], the pIC50 is 8.30.

The molecule `CCCc1nc2c(-c3nccs3)cc(N3CCOCC3)cc2n1-c1ccnc2c(F)ccc(F)c12` [Example 239, 4-[3-(5,8-difluoroquinolin-4-yl)-2-propyl-7-(1,3-thiazol-2-yl)benzimidazol-5-yl]morpholine] had a negative logarithm of the IC50 (pIC50) of 7.92.

As to `CCCc1nc2c(-c3cnc(Cl)[nH]3)cc(N3CCOCC3)cc2n1-c1ccnc2c(Cl)cc(F)cc12` [Example 303, 4-[3-(8-chloro-6-fluoroquinolin-4-yl)-7-(2-chloro-1H-imidazol-5-yl)-2-propylbenzimidazol-5-yl]morpholine], the negative logarithm of the IC50 (pIC50) is 7.68.

`Fc1ccc2c(-n3c(C4CC4)nc4c(-c5nnc[nH]5)cc(N5CCOCC5)cc43)ccnc2c1Cl` [Example 38, 4-(1-(8-chloro-7-fluoroquinolin-4-yl)-2-cyclopropyl-4-(4H-1,2,4-triazol-3-yl)-1H-benzo[d]imidazol-6-yl)morpholine] gave a pIC50 of 7.96.

Molecule `Cc1cccc2nccc(-n3cnc4c(-c5nnc[nH]5)cc(N5CCOCC5)cc43)c12` [Example 127, 4-[3-(5-methylquinolin-4-yl)-7-(4H-1,2,4-triazol-3-yl)benzimidazol-5-yl]morpholine] showed a pIC50 of 7.64.

Take `CCc1nc2c(-c3nnc[nH]3)cc(N3CCOCC3)cc2n1-c1c(-c2nnc[nH]2)cnc2ccccc12` [Example 391, 4-(1-(3-(4H-1,2,4-triazol-3-yl)quinolin-4-yl)-2-ethyl-4-(4H-1,2,4-triazol-3-yl)-1H-benzo[d]imidazol-6-yl)morpholine]: the negative logarithm of the IC50 (pIC50) is 8.00.

As to `Cc1nc2c(-c3cnc(Cl)[nH]3)cc(N3CCOCC3)cc2n1-c1ccnc2c(Cl)ccc(F)c12` [Example 288, 4-[3-(8-chloro-5-fluoroquinolin-4-yl)-7-(2-chloro-1H-imidazol-5-yl)-2-methylbenzimidazol-5-yl]morpholine], the negative-log IC50 (pIC50) was 8.30.

Regarding `Cc1nnc(-c2cc(N3CCOCC3)cc3c2nc(C2CC2)n3-c2ccnc3c(Cl)cccc23)[nH]1` [Example 47, 4-(1-(8-chloroquinolin-4-yl)-2-cyclopropyl-4-(5-methyl-4H-1,2,4-triazol-3-yl)-1H-benzo[d]imidazol-6-yl)morpholine], the pIC50 was 7.74.

The molecule `Cc1nc2c(-c3nnc[nH]3)cc(N3CCOCC3)cc2n1-c1ccnc2c(F)ccc(F)c12` [Example 114, 4-[3-(5,8-difluoroquinolin-4-yl)-2-methyl-7-(4H-1,2,4-triazol-3-yl)benzimidazol-5-yl]morpholine] had a negative-log IC50 (pIC50) of 7.92.

For the origin of these results see patent US10214519B2, “Phosphatidylinositol 3-kinase inhibitors” (Gilead Sciences, Inc., priority 2016, dated 2019).
